Legend:
[1] = system: irritable bowel syndrome rats; test: Irritable bowel syndrome rats induced by early maternal separation; type: in vivo, SD rats; design: AWR scoring: scale not given here; details: for Colon 5-HT / Serum 5-HT / AWR scoring: IBS rats
Protocol: The newborn SD male rats were separated from the mother rat in lactation period for 3 h every day on the 2nd to the 21st day after the birth of the newborn SD rats, namely, the mother rat in lactation period was taken out of the cage at 8:30 a.m., and then the newborn rats were removed from the initial cage and put to another separate cage, then the cage was transferred to an adjacent room, then the newborn rats were returned to the initial cage 3 h later, namely, at 11:30 such that the newborn rats and the mother rat got together; the newborn rats were weaned on the 22nd day after birth and separated from the initial cage on the 30th day, grouped on the 60th day, and administered, 20 d in total.
Intragastric administration was performed within the administration period once a day with continuous administration for 20 d.
Test indicators: abdominal withdrawal reflex (AWR); test method: rats were fasted 18 h before the experiment and drank water freely, and narcotized with diethyl ether; then an air sac coated with paraffin oil was inserted into the rats’ colorectum for 4.0 cm, and a catheter outside the anus was fixed at the root of the rat tail with an adhesive tape, and connected with an injection syringe and a sphygmomanometer via three links. The rats were put to an organic glass inspection box (20 cmx12 cm×9 cm), after the rats were awake and fully adapted to the environment for 30 min, the experiment was started. 20, 40 and 60 mm Hg of pressure were respectively applied on the rats, and continuous expansion was performed for 20 s each time with a stimulus interval of 4 min; each pressure was performed for 3 times repeatedly for AWR scoring.
At the end of the experiment, the animals were dissected and weighed, and narcotized to take blood, then the content of 5-HT in serum was determined by high performance liquid chromatography. […] slightly with 0.5% sodium carboxymethylcellulose, and then sucked dry with a filter paper, and placed into a cryogenic tube, and preserved at -20° C. for further use, […] chromatography.

ulcerative colitis mice = test: Mice ulcerative colitis (DSS); type: in vivo, BALB/c mice; details: for Total times of hematochezia within the four periods / Colon length / IL-1 content: DSS mice; for Colon length: four periods; for IL-1 content: serum, ELISA
Description: Healthy male SPF-level BALB/c mice (8-week old and body mass: (20±2) g).
Modeling: the mice were randomly divided into […] at the end of the quarantine, 10 pieces for each group. The mice in the normal group drank normal water freely, and the rest groups of mice drank 1.0%-1.5% DSS solution freely for modeling, 7 d later after modeling, the mice in the modeling group drank normal water freely for 7 d, and 14 d served as a modeling period for four continuous periods, and the mice in the modeling group were administered at the same time.
End point of the experiment: experimental administration was performed for four periods, and dissection was performed on the 3rd and 4th day of the recovery period of the 4th period.
Test indicators: the mice were weighed twice a week after the beginning of the administration; diarrhea and hematochezia of the mice were observed, and times of hematochezia were recorded.
At the end of the experiment, the mice were dissected and weighed, and narcotized to take blood, then serum was preserved at -80° C. Spleen was taken and weighed to calculate the spleen index. The content of IL-1β in serum was detected via ELISA. Colorectum was cut and taken to measure the length of colorectum, then immobilized by formaldehyde and dyed by HE to detect the pathological change.

[2] = target: T1, recombinant human protein MAGL (Homo sapiens, UniProt Q99685); test: MAGL enzyme analysis (Cayman MAGL inhibitor screening kit); type: biochemical; details: 4-nitrophenylacetic acid substrate, absorbance 410 nm, read-out: MAGLXIC50
T1 construct: purchased Cayman
T1 sequence (Q99685 1-303): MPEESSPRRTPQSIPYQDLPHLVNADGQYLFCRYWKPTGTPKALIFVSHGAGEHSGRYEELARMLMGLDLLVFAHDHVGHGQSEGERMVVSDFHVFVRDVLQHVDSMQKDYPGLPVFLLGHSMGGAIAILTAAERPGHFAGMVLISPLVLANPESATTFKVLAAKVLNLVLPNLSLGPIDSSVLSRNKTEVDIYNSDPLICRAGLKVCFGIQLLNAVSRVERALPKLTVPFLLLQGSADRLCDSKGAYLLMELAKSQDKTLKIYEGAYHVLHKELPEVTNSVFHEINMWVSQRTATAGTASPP
Protocol: 150 µL 1Xassay buffer, 10 µL recombinant human protein MAGL and 10 µL different concentrations of MAGL inhibitors (six points within 1 nM to 1000 nM) were added to per well of a 96-well plate. JZL195 (a positive control inhibitor) served as a positive control well, after incubation for 5 min at room temperature, per well was added with 10 µL MAGL substrate, and […] were vibrated for 10 s and placed for 10 min at room temperature, then an absorbance was detected at 410 nm. […] Graphad Prism 5.0 was taken to calculate IC50 curves fitting each inhibitor.

[3] = high dose 30 mg/kg ig 20 d, 20 mm Hg
[4] = high dose 30 mg/kg ig 20 d, 40 mm Hg
[5] = high dose 30 mg/kg ig 20 d, 60 mm Hg
[6] = low dose 7.5 mg/kg ig 20 d, 20 mm Hg
[7] = low dose 7.5 mg/kg ig 20 d, 40 mm Hg
[8] = low dose 7.5 mg/kg ig 20 d, 60 mm Hg
[9] = middle dose 15 mg/kg ig 20 d, 20 mm Hg
[10] = middle dose 15 mg/kg ig 20 d, 40 mm Hg
[11] = middle dose 15 mg/kg ig 20 d, 60 mm Hg

SMILES | Colon 5-HT ([1]; high dose 30 mg/kg ig 20 d) | Serum 5-HT ([1]; high dose 30 mg/kg ig 20 d) | AWR scoring [1, 3] | AWR scoring [1, 4] | AWR scoring [1, 5] | Colon 5-HT ([1]; low dose 7.5 mg/kg ig 20 d) | Serum 5-HT ([1]; low dose 7.5 mg/kg ig 20 d) | AWR scoring [1, 6] | AWR scoring [1, 7] | AWR scoring [1, 8] | Colon 5-HT ([1]; middle dose 15 mg/kg ig 20 d) | Serum 5-HT ([1]; middle dose 15 mg/kg ig 20 d) | AWR scoring [1, 9] | AWR scoring [1, 10] | AWR scoring [1, 11] | Total times of hematochezia within the four periods (ulcerative colitis mice; high dose 30 mg/kg ig) | Colon length (ulcerative colitis mice; high dose 30 mg/kg ig) [cm] | IL-1 content (ulcerative colitis mice; high dose 30 mg/kg ig) [pg/mL] | Total times of hematochezia within the four periods (ulcerative colitis mice; low dose 7.5 mg/kg ig) | Colon length (ulcerative colitis mice; low dose 7.5 mg/kg ig) [cm] | further results
O=C(Nc1ccc(Cl)cc1)C1CCN(C(=O)c2ccc(O)cc2)CC1 [MAGLZ-II-10] | 18.66±2.38^∗ µg/mg | 33.09±2.31^∗ µg/ml | 2.89±0.46 | 3.21±0.35^∗ | 3.65±0.17^∗ | 21.44 ± 2.72 µg/mg | 36.32 ± 3.14 µg/mL | 2.87±0.39 | 3.43±0.30 | 3.79±0.20 | 20.97 ± 2.24 µg/mg | 38.65 ± 2.68 µg/mL | 2.83±0.47 | 3.56±0.22 | 3.80±0.17 | 35.15±4.52 | 6.35±0.61 | 47.25 ± 6.37 | 38.40±5.02 | 5.92±0.66 | IL-1 content (ulcerative colitis mice; low dose 7.5 mg/kg ig): 51.81 ± 7.86 pg/mL; Total times of hematochezia within the four periods (ulcerative colitis mice; middle dose 15 mg/kg ig): 38.20±7.83; Colon length (ulcerative colitis mice; middle dose 15 mg/kg ig): 5.72±0.60 cm; IL-1 content (ulcerative colitis mice; middle dose 15 mg/kg ig): 50.83 ± 7.79 pg/mL
O=C(Nc1cccc(Cl)c1)C1CCN(C(=O)c2cc(O)ccc2F)CC1 [MAGLZ-II-11 (a)] | 12.65±3.36^∗∗∗ µg/mg | 24.05±6.17^∗∗∗ µg/ml | 1.23±0.50^∗∗ ∗ | 2.13±0.48^∗∗∗ | 2.87±0.46^∗∗∗ | 16.33±2.78^∗∗ µg/mg | 31.76±5.42^∗∗ µg/ml | 2.12±0.36^∗∗ ∗ | 3.02±0.53^∗ | 3.58±0.26^∗∗ | 14.79±2.73^∗∗∗ µg/mg | 29.89±5.34^∗∗∗ µg/ml | 1.51±0.43^∗∗ ∗ | 2.52±0.38^∗∗∗ | 3.27±0.48^∗∗∗ | 27.90±3.73 | 7.56±0.74 | 38.61 ± 10.98 | 28.80±7.04 | 7.21±1.10 | 5-HT level in colon and serum, in words ([1]; compared with the model group): significantly decrease; AWR scoring, in words ([1]; compared with the model group): significantly decrease; IL-1 content (ulcerative colitis mice; low dose 7.5 mg/kg ig): 42.01 ± 13.92 pg/mL; Total times of hematochezia within the four periods (ulcerative colitis mice; middle dose 15 mg/kg ig): 29.10±7.14; Colon length (ulcerative colitis mice; middle dose 15 mg/kg ig): 7.20±0.97 cm; IL-1 content (ulcerative colitis mice; middle dose 15 mg/kg ig): 40.70 ± 8.50 pg/mL; IL-1 content, in words (ulcerative colitis mice; compared with the model group): decrease; colon length, in words (ulcerative colitis mice; compared with the model group): significantly increase; total times of hematochezia, in words (ulcerative colitis mice; compared with the model group): reduce; IC50 [2]: 2150 nM

Reference: patent publication US20230090255A1, “MAGL INHIBITOR, PREPARATION METHOD THEREFOR AND USE THEREOF” (LUNAN PHARMACEUTICAL GROUP CORPORATION, priority 2019, published 2023)
